Literature values, collected in patent US9290518B2, “Water soluble metal-organic frameworks (MOFs)” (Council of Scientific and Industrial Research, priority 2011, dated 2016).

Conditions: 25° C., 98% RH, literature

- proton conductivity: 1.1×10^−3 S cm^−1
SMILES: O=C1N2CN3C(=O)N4CN5C(=O)N6CN7C(=O)N8CN9C(=O)N%10CN%11C(=O)N%12CN1C1C2N2CN%13C(=O)N(CN%14C(=O)N(CN%15C(=O)N(CN%16C(=O)N(CN%17C(=O)N(CN1C2=O)C%12C%11%17)C%10C9%16)C8C7%15)C6C5%14)C4C3%13 (stereo not shown) [cucurbit [6]uril]
